Assay results: publication PMC5656517 (European journal of pharmaceutical sciences : official …, 2017)

What was measured:
CYP3A4 [1] = target: T1, CYP3A4 (Homo sapiens, UniProt P08684); details: recombinant enzymes; ref Kent et al., (2002); cited from earlier work
[2] = test system: one or more cytochrome P450 enzymes (CYP1A2, 2A6, 2B6, 2C8, 2C9, 2C19, 2D6, 2E1, 3A4); isoform not specified per value; assay: in vitro; details: human, pH 7.4
CYP2B6 [3] = target: T2, CYP2B6 (Homo sapiens, UniProt P20813); details: recombinant enzymes; ref Kent et al., (2002); cited from earlier work
T2 sequence (P20813 1-491): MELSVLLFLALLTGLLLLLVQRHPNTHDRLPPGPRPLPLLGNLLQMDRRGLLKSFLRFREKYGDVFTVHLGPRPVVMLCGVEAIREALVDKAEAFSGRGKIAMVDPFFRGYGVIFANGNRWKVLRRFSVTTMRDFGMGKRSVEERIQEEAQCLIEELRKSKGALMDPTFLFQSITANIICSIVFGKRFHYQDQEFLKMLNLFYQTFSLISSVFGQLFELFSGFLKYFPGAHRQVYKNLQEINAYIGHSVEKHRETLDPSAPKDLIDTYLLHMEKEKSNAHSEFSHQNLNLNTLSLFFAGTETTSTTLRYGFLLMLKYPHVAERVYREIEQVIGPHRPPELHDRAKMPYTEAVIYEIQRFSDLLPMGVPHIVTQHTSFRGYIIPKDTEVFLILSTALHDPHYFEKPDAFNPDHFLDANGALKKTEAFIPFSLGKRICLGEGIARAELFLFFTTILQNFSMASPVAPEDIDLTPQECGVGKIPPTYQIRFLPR

CYP2B6 [4] = target: T2, CYP2B6; assay: Single concentration; assay type: in vitro ADME; details: human liver microsomes
CYP3A4 [5] = target: T1, CYP3A4
CYP2C9 = CYP2C9 (Homo sapiens, UniProt P11712); details: recombinant enzymes; ref Kent et al., (2002); cited from earlier work
Chain of CYP2C9 (P11712 whole entry, canonical isoform): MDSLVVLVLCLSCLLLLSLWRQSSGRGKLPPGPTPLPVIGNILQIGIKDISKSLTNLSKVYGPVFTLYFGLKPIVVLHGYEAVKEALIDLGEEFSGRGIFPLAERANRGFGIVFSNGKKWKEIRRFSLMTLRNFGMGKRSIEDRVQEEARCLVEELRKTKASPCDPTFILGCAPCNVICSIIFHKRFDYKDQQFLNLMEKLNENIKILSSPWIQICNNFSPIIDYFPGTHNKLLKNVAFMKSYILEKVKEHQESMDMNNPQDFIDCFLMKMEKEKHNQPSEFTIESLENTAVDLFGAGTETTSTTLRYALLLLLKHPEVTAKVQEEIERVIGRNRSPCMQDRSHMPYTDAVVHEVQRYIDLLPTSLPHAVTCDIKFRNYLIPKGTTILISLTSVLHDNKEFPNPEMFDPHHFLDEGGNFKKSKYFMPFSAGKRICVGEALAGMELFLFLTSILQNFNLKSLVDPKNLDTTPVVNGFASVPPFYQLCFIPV

cytochrome P450 enzymes = assay: Single concentration; details: 10 µM, 9 isoforms
CYP2D6 = CYP2D6 (Homo sapiens, UniProt P10635); assay: Single concentration; assay type: in vitro ADME; details: human liver microsomes
Chain of CYP2D6 (P10635 whole entry): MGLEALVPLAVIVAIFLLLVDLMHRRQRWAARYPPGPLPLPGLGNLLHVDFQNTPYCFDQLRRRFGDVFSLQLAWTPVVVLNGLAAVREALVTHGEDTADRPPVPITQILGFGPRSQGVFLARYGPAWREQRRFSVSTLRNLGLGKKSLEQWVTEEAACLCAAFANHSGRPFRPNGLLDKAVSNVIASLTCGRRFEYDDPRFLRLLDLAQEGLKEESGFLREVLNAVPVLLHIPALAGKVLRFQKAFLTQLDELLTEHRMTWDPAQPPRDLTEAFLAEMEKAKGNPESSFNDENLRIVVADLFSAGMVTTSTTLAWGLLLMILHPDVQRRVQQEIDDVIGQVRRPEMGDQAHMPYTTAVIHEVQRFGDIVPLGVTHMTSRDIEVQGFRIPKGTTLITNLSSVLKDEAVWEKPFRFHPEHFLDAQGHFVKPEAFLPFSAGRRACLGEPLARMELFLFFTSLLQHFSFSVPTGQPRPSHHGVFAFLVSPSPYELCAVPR

CYP2C = assay: Single concentration; assay type: in vitro ADME; details: human liver microsomes

T1 sequence (P08684 whole entry, canonical isoform): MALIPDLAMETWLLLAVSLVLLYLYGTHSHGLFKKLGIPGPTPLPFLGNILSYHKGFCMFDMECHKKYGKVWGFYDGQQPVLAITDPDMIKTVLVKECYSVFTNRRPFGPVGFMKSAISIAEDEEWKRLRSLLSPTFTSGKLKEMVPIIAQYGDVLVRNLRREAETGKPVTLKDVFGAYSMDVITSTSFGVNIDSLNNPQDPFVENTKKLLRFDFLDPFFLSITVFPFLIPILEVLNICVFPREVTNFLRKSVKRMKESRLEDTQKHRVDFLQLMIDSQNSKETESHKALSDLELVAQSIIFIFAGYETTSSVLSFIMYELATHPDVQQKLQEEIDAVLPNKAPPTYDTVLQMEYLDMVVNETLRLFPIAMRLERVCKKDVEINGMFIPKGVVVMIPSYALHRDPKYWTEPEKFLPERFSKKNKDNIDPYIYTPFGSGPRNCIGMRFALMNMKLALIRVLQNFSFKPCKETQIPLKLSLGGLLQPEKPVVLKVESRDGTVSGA

Row | Compound | inhibition at 10 min, 10 µM [2] [%] | inhibition of CYP2B6 at 10 µM, in words (CYP2B6 [4]) | mode of CYP3A4 inhibition, in words (CYP3A4 [5]) | inhibition of any cytochrome P450 enzyme, in words (cytochrome P450 enzymes) | further results
1 | CC1(C)C=Cc2c(ccc3c2OC[C@@H](c2ccc(O)cc2O)C3)O1 [Glabridin, glabridin] | > 50 | not inhibition | competitively inhibited |  | inhibition of CYP3A4, in words (CYP3A4 [1]): irreversibly inhibited; inhibition of CYP2B6, in words (CYP2B6 [3]): irreversibly inhibited; inhibition of CYP2C9, in words (CYP2C9): reversibly inhibited
2 | O=C(/C=C/c1ccc(O)cc1)c1ccc(O)cc1O [Isoliquiritigenin, isoliquiritigenin] |  |  | competitively inhibited |  | 
3 | O=C(/C=C/c1ccc(O[C@@H]2O[C@H](CO)[C@@H](O)[C@H](O)[C@H]2O)cc1)c1ccc(O)cc1O [Isoliquiritin, isoliquiritin] |  |  |  | did not inhibit | 
4 | COc1c(CC=C(C)C)c(O)cc2oc(=O)c(-c3ccc(O)cc3O)cc12 [Glycycoumarin, glycycoumarin] | > 50 | inhibited |  |  | inhibition of CYP2D6 at 10 µM, in words (CYP2D6): did not observe significant inhibition; inhibition of CYP2C at 10 µM, in words (CYP2C): inhibited
5 | liquiritin apioside |  |  |  | did not inhibit | 
6 | COc1c(CC=C(C)C)c(O)cc2c1C[C@H](c1ccc(O)c(CC=C(C)C)c1O)CO2 [Licoricidin, licoricidin] | > 50 | inhibited | competitively inhibited |  | 
7 | CC1(C)[C@@H](O)CC[C@]2(C)[C@H]3C(=O)C=C4[C@@H]5C[C@@](C)(C(=O)O)CC[C@]5(C)CC[C@@]4(C)[C@]3(C)CC[C@@H]12 [18β-glycyrrhetinic acid] | > 50 |  |  |  | 
8 | isoliquiritin apioside |  |  |  | did not inhibit | 
